Results published in patent US9637516B2, “Betulinic acid proline derivatives as HIV inhibitors” (HETERO RESEARCH FOUNDATION, priority 2012, dated 2017).

Tests used:
HIV-1 strain 92HT599 = experiment: Antiviral activity: p24 estimation in MT2 cells infected with HIV-1 strain 92HT599; assay type: cell-based; settings: for IC50: Human immunodeficiency virus 1, HIV-1 92HT599, p24
Method: MT2 cells were infected with HIV-1 strain 92HT599 (10 TCID 50/30000 cells). The infected cells were plated at the concentration of ˜30 000 cells per well in 96 well plate. Test compound was added to the micro plate in defined format with the final concentration of DMSO (vehicle) is not more than 1%. Incubation was carried out in CO2 incubator for ˜96 hours for viral infection. At the end of incubation period an aliquot from each well was taken for p24 estimation. The quantitation of p24 is an index for antiviral activity of the compound. Percent inhibition was calculated with reference to control values (vehicle controls). p-24 estimation was carried out using Advance biosciences kit as per the procedure detailed by supplier.

[1] = Single dose oral pharmacokinetic study; assay type: in vivo, mice; settings: mouse, plasma
Method: The test item was administered through oral route to animals (rat/mice) at 30 mg/kg dose in a suitable vehicle at 10 ml/kg dose volume. Blood samples (˜50 uL at each time point) were collected from retro-orbital plexus using K3 EDTA as anticoagulant in eppendorf tubes at defined time intervals under light ether anesthesia. The samples were centrifuged at 3500×g to separate plasma and stored at −80° C. until analysis.
Sample analysis: Test samples were analyzed using LC-MS-MS after developing fit-for-purpose method for each of test compound.

[2] = Mice oral PK @30 mg/kg (Table 4)
[3] = Mice oral PK @30 mg/kg (Table 3)

Compound	inhibition at 0.1 µM (HIV-1 strain 92HT599; Human immunodeficiency virus 1, 100 nM, HIV-1 92HT599, p24, ~96 hours) [%]	inhibition at 1 µM (HIV-1 strain 92HT599; Human immunodeficiency virus 1, 1000 nM, HIV-1 92HT599, p24, ~96 hours) [%]	AUC(0-inf) [1, 2] [µg·h/mL]	AUC(0-t) [1, 2] [µg·h/mL]	Cmax [1, 2] [ng/mL]	half-life [1, 2] [h]	IC50 (HIV-1 strain 92HT599) [nM]	AUC(0-t) [1, 3] [µg·h/mL]	Cmax [1, 3] [ng/mL]	Tmax [1, 3] [h]
C=C(C)[C@@H]1CC[C@]2(C(=O)N3CCCC3c3ncc(-c4ccc(OC)cc4)[nH]3)CC[C@]3(C)[C@H](CC[C@@H]4[C@@]5(C)CC[C@H](OC(=O)[C@H]6C[C@@H](C(=O)O)C6(C)C)C(C)(C)[C@@H]5CC[C@]43C)[C@@H]12 (stereo partly drawn) [Compound 15]	98	97	446	286	11400	30.9	–	–	–	–
CC(C)(CC(=O)O[C@H]1CC[C@]2(C)[C@H]3CC[C@@H]4[C@H]5[C@H](C6(C)CC6)CC[C@]5(C(=O)N5CCC[C@H]5c5ncc(-c6ccc(F)cc6)[nH]5)CC[C@@]4(C)[C@]3(C)CC[C@H]2C1(C)C)C(=O)O [Compound 33, 4-(((1R,3aS,5aR,5bR,7aR,9S,11aR,11bR,13aR,13bR)-3a-((S)-2-(5-(4-fluorophenyl)-1H-imidazol-2-yl)pyrrolidine-1-carbonyl)-5a,5b,8,8,11a-pentamethyl-1-(1-methylcyclopropyl)icosahydro-1H-cyclopenta[a]chrysen-9-yl)oxy)-2,2-dimethyl-4-oxobutanoic acid]	–	–	152	88.7	4400	32.1	9.5	–	–	–
CC1(C)C(C(=O)O)CC1C(=O)O[C@H]1CC[C@]2(C)[C@H]3CC[C@@H]4[C@H]5[C@H](C6(C)CC6)CC[C@]5(C(=O)N5CCC[C@H]5c5ncc(-c6ccccc6)[nH]5)CC[C@@]4(C)[C@]3(C)CC[C@H]2C1(C)C (stereo partly drawn) [Compound 43, 2,2-dimethyl-3-((((1R,3aS,5aR,5bR,7aR,9S,11aR,11bR,13aR,13bR)-5a,5b,8,8,11a-pentamethyl-1-(1-methylcyclopropyl)-3a-((S)-2-(5-phenyl-1H-imidazol-2-yl)pyrrolidine-1-carbonyl)icosahydro-1H-cyclopenta[a]chrysen-9-yl)oxy)carbonyl)cyclobutane-1-carboxylic acid]	–	–	776	294	13900	55.6	4.4	–	–	–
C=C(C)[C@@H]1CC[C@]2(C(=O)N3CCC[C@H]3c3ncc(-c4ccccc4)[nH]3)CC[C@]3(C)[C@H](CC[C@@H]4[C@@]5(C)CC[C@H](OC(=O)[C@@H]6C[C@H](C(=O)O)C6(C)C)C(C)(C)[C@@H]5CC[C@]43C)[C@@H]12 [Compound 27, (1S,3R)-2,2-dimethyl-3-((((1R,3aS,5aR,5bR,7aR,9S,11aR,11bR,13aR,13bR)-5a,5b,8,8,11a-pentamethyl-3a-((S)-2-(5-phenyl-1H-imidazol-2-yl)pyrrolidine-1-carbonyl)-1-(prop-1-en-2-yl)icosahydro-1H-cyclopenta[a]chrysen-9-yl)oxy)carbonyl)cyclobutane-1-carboxylic acid]	–	–	535	231	10100	38.1	11	–	–	–
CC(C)(CC(=O)O)CC(=O)O[C@H]1CC[C@]2(C)[C@H]3CC[C@@H]4[C@H]5[C@H](C6(C)CC6)CC[C@]5(C(=O)N5CCCC5c5ncc(-c6cccnc6)[nH]5)CC[C@@]4(C)[C@]3(C)CC[C@H]2C1(C)C (stereo partly drawn) [Compound 31]	–	–	145	136	9300	10.9	1.62	–	–	–
C=C(C)[C@@H]1CC[C@]2(C(=O)N3CCC[C@@H]3c3nc(-c4ccccc4)no3)CC[C@]3(C)[C@H](CC[C@@H]4[C@@]5(C)CC[C@H](OC(=O)CC(C)(C)C(=O)O)C(C)(C)[C@@H]5CC[C@]43C)[C@@H]12 [Compound 1, 2,2-dimethyl-4-oxo-4-((1R,3aS,5aR,5bR,7aR,9S,11aR,11bR,13aR,13bR)-5a,5b,8,8,11a-pentamethyl-3a-((R)-2-(3-phenyl-1,2,4-oxadiazol-5-yl)pyrrolidine-1-carbonyl)-1-(prop-1-en-2-yl)icosahydro-1H-cyclopenta[a]chrysen-9-yloxy)butanoic acid]	–	–	–	–	–	–	5.02	125	12700	6
